Measured values from paper PMC8162404, “Proteomimetic surface fragments distinguish targets by function” (Chemical Science, 2020).
pKd: −log10 of the molar value.

What was measured:
RecQ-WH = target: T1, RecQ-WH (Escherichia coli, UniProt P15043); experiment: Pull-down assay with immobilized protein and LSM libraries; set-up: species or system E. coli; details: H14 library; 1:1 binding assumed; read-out: Surface mapping KD (apparent)
T1 construct: coding for residues 408– 523 of E. coli RecQ; made in house; host or cells: E. coli BL21(DE3)
Experimental: Pull-down assays with immobilized test proteins and foldameric LSM libraries were carried out. Proteins were equilibrated with LSM probes, and equilibrium bound fractions (FB) were determined from the unbound fractions measured by HPLC-MS methods. Hits were corrected with background binding of the resin. The protocol allowed all binding events to equilibrate irrespective of affinity, specificity, and binding kinetics. This was essential to judge overall druggability and promiscuity. Importantly, the concentration of protein and the total concentration of foldameric LSMs were equimolar, which minimized competition between the probes. This experimental setup approximated independent binding of individual library members. Results were visualized as heat maps of dissociation constants (Fig. 3).
Pull-down assay and data analysis
Pull-down assay. LSM sublibraries were screened separately as previously described.(2) Experiments were performed in the following buffers: (i) 20 mM pH 7.4 HEPES, 150 mM NaCl, 5 mM CaCl2 for CaM; (ii) 50 mM pH 7.4 HEPES, 150 mM NaCl, 1 mM TCEP, 1 mM CaCl2 for S100 proteins; (iii) 20 mM pH 7.4 HEPES, 150 mM NaCl, 1 mM TCEP for Gal-1 and (iv) 20 mM pH 7.4 HEPES, 150 mM NaCl for RecQ-WH. Assays were performed in paper filter spin cups (Thermo Scientific) with sample volumes of 100 µl. Hexahistidine-tagged proteins were immobilized on previously washed Co-NTA resin (TALON, Takara Bio USA, Inc., Mountain View, CA) in 64 µM final concentration. LSM sublibrary was added, in which each of the 64 library members were used at a concentration of 1 µM. Samples were incubated at room temperature for 30 min with shaking at 100 rpm. Then, samples were centrifuged at 1000 rpm for 2 min and washed with 100 µl pull-down buffer to remove unbound compounds.
The control experiments were performed using the same compounds and the resin but without the immobilized protein. In case of competitive assays, competitor peptides were added to LSM sublibrary samples in 200 µM final concentration. In the case of Gal-1, lactose (competitor) was used in a concentration of 10 mM. Experiments were performed at least twice. Mean […]
LC-MS methods and parameters. HPLC/ESI-MS analysis was used to characterize the samples from the pull-down assay. LC-MS analysis was performed with a Thermo Scientific Dionex UltiMate 3000 HPLC system interfaced to an LTQ ion trap mass spectrometer (Thermo Electron Corp., San Jose, CA, USA). Samples were injected onto an Aeris Widepore XB-C18 (250 x 4.6 mm) analytical HPLC column using gradient elution 5-80 % solution B during 25 minutes. For pull-down samples, eluent composition was 0.1% acetic acid in distilled water (Solution A) and 0.1% acetic acid in acetonitrile (solution B). Mass spectra were acquired in full scan mode from 200 to 2000 m/z range. For overlapping peaks, selective reaction monitoring (SRM) was […]
MS data analysis. Thermo Xcalibur 2.2 software was used for peak identification and integration. The majority of the foldameric fragments could be resolved independently via HPLC-MS/MS measurements based on molecular weight, MS fragmentation pattern and retention time. Peaks of some foldamers with β3-hIle or β3-hLeu in position R2 could not be resolved, these were integrated and averaged. In the processing method, each sample component was associated to a chromatographic peak based on previously identified mass (m/z) and retention time (ref (2) and Table S7-10). Using ICIS peak detection algorithm, the general detection and integration criteria were: smoothing points: 5, baseline window: 80, area noise factor: 5, peak noise factor: 10. Using these processing setups, all raw data files were reprocessed together and analyzed. Errors in peak identification during the automatic processing were corrected manually.
Calculation of the discussed parameters
1. Bound fractions (FB.) were calculated from the HPLC-MS intensity loss of the LSM probes compared to the control where no protein was immobilized to the resin: […]

Gal-1 [1] = target: T2, Gal-1 (Homo sapiens, UniProt P09382); experiment: as above; assay type: binding; details: H14 library; 1:1 binding assumed; read-out: Surface mapping KD (apparent)
T2 construct: made in house; host or cells: E. coli BL21(DE3)
Procedure, shortened: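 His-tagged protein immobilized on Co-NTA resin (64 µM) in 20 mM HEPES pH 7.4, 150 mM NaCl, equilibrated 30 min at room temperature with foldamer LSM sublibraries at equimolar total concentration. Unbound fractions quantified by HPLC-MS versus protein-free resin control; apparent KD assumes 1:1 binding.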

S100B = target: T3, S100B (Homo sapiens, UniProt P04271); experiment: as above; assay type: binding; details: for pKd: H14 library, 1:1 binding assumed, read-out: Surface mapping KD (apparent)
T3 construct: made in house; host or cells: Escherichia coli BL21(DE3)
T3 sequence (P04271 1-92): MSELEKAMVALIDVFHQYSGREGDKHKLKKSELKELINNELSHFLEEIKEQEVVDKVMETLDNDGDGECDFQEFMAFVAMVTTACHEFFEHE
Procedure, shortened: (§1)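 Buffers were HEPES pH 7.4 with 150 mM NaCl, plus 1 mM TCEP and 1 mM CaCl2 (50 mM HEPES) for S100A4 and S100B, 1 mM TCEP for Gal-1, and no additive for RecQ-WH. Immobilized protein at 64 µM was equilibrated 30 min with the LSM sublibrary, and unbound probes were measured by LC-MS.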

S100A4 = target: T4, S100A4 (Homo sapiens, UniProt P26447); experiment: as above; assay type: binding; details: for pKd: H14 library, 1:1 binding assumed, read-out: Surface mapping KD (apparent)
T4 construct: made in house; host or cells: Escherichia coli BL21(DE3)
Procedure, shortened: as §1

CaM [2] = target: T5, CaM (Bos taurus, UniProt P62157); experiment: as above; assay type: binding, bovine; details: H14 library; 1:2 stoichiometry assumed; read-out: Surface mapping KD (apparent)
T5 construct: made in house; host or cells: E. coli BL21 (DE3)
Procedure, shortened: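 His-tagged protein immobilized on Co-NTA resin, equilibrated 30 min at room temperature with LSM sublibraries (64 members, […]), equimolar protein to total probe. CaM buffer: 20 mM HEPES pH 7.4, 150 mM NaCl, 5 mM CaCl2. Bound fractions from HPLC-MS loss of unbound probe versus protein-free resin control; Kd derived.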

Gal-1 [3] = target: T2, Gal-1; experiment: Competition pull-down with lactose; assay type: binding; details: H14 library; lactose 10 mM; read-out: Surface mapping KD (apparent), competition
Procedure, shortened: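 His6-tagged proteins immobilized on Co-NTA resin at 64 µM final with 64-member LSM foldamer sublibraries (1 M each, as printed) in pH 7.4 HEPES/NaCl buffers (Ca2+/TCEP per target), 30 min RT; competitor peptides 200 µM final, lactose 10 mM for Gal-1. Bound fractions from LC-MS loss vs protein-free resin; KD assuming 1:1 binding.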

CaM [4] = target: T5, CaM; experiment: Competition pull-down with native ligand TRPV1-Ct15; assay type: binding, bovine; details: H14 library; competitor peptide 200 µM; read-out: Surface mapping KD (apparent), competition
[5] = H14 probes selected for validation

T1 sequence (P15043 408-523): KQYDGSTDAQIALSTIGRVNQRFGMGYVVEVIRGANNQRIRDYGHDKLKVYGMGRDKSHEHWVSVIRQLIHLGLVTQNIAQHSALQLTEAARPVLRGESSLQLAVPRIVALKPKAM
T4 sequence (P26447 whole entry): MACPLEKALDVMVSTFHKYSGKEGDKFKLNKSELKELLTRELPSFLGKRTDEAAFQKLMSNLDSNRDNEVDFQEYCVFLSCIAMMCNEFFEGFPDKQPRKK
T2 sequence (P09382 whole entry): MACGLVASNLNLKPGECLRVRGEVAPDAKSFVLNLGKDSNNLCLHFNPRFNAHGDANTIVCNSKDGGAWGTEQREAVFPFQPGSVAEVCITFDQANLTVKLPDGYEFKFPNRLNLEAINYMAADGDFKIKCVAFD

Compound	pKd (RecQ-WH)	pKd (Gal-1 [1])	pKd (S100B)	pKd (S100A4)	pKd (CaM [2])	pKd (Gal-1 [3])	Affinity class of probe (high, medium, low) in pull-down (S100B; [5])	Affinity class of probe (high, medium, low) in pull-down (S100A4; [5])	pKd (CaM [4])
CSCC[C@@H](CC(=O)N[C@H]1CCCC[C@@H]1C(=O)N[C@H]1CCCC[C@@H]1C(=O)N[C@@H](CCCNC(=N)N)CC(=O)N[C@H]1CCCC[C@@H]1C(N)=O)NC(=O)[C@H]1CCCC[C@@H]1N [H14 MR]	3.34	3.40	4.04	3.61	4.72	3.51			
NC(=O)[C@H]1CCCC[C@@H]1NC(=O)C[C@H](Cc1ccccc1)NC(=O)[C@H]1CCCC[C@@H]1NC(=O)[C@H]1CCCC[C@@H]1NC(=O)C[C@H](CO)NC(=O)[C@H]1CCCC[C@@H]1N [H14 SF]	3.74	3.57	3.98	4.15	4.52	3.51			
N=C(N)NCCC[C@@H](CC(=O)N[C@H]1CCCC[C@@H]1C(=O)N[C@H]1CCCC[C@@H]1C(=O)N[C@H](CC(=O)N[C@H]1CCCC[C@@H]1C(N)=O)Cc1ccccc1)NC(=O)[C@H]1CCCC[C@@H]1N [H14 RF]	3.64		4.80	4.19	5.40		high	medium	3.46
NC(=O)[C@H]1CCCC[C@@H]1NC(=O)C[C@H](Cc1c[nH]c2ccccc12)NC(=O)[C@H]1CCCC[C@@H]1NC(=O)[C@H]1CCCC[C@@H]1NC(=O)C[C@H](CC(=O)O)NC(=O)[C@H]1CCCC[C@@H]1N [H14 DW]	3.78		3.70						3.36
CC(C)C[C@@H](CC(=O)N[C@H]1CCCC[C@@H]1C(N)=O)NC(=O)[C@H]1CCCC[C@@H]1NC(=O)[C@H]1CCCC[C@@H]1NC(=O)C[C@H](CC(=O)O)NC(=O)[C@H]1CCCC[C@@H]1N [H14 DL]	3.37					3.39			
NC(=O)[C@H]1CCCC[C@@H]1NC(=O)C[C@H](CCC(=O)O)NC(=O)[C@H]1CCCC[C@@H]1NC(=O)[C@H]1CCCC[C@@H]1NC(=O)C[C@H](Cc1c[nH]c2ccccc12)NC(=O)[C@H]1CCCC[C@@H]1N [H14 WE]	3.86			3.37	3.72				
CC(C)C[C@@H](CC(=O)N[C@H]1CCCC[C@@H]1C(N)=O)NC(=O)[C@H]1CCCC[C@@H]1NC(=O)[C@H]1CCCC[C@@H]1NC(=O)C[C@H](CCCNC(=N)N)NC(=O)[C@H]1CCCC[C@@H]1N [H14 RL]	3.63		4.51	4.29	5.00				
C[C@@H](CC(=O)N[C@H]1CCCC[C@@H]1C(N)=O)NC(=O)[C@H]1CCCC[C@@H]1NC(=O)[C@H]1CCCC[C@@H]1NC(=O)C[C@H](CCCNC(=N)N)NC(=O)[C@H]1CCCC[C@@H]1N [H14 RA]	3.34		3.73		3.95				3.35
